Measurements from paper PMC6522510 (Nature Communications, 2019).
Read-outs that look alike come from different tables or passages of the source.

How the values were obtained:
MV4-11 = assay: Secondary dose-response HTS, Cell Titer Glo; assay type: cell-based, human; conditions: secondary high-throughput screen, MV4-11; for EC50: read-out: average effective concentration, MV4-11
U937 = assay: Secondary dose-response HTS, Cell Titer Glo; assay type: cell-based, human; conditions: secondary high-throughput screen, U937; for EC50: Homo sapiens, U-937, read-out: average effective concentration, U937
M07e = assay: Secondary dose-response HTS, Cell Titer Glo; assay type: cell-based, human; conditions: secondary high-throughput screen; for EC50: read-out: average effective concentration, M07e
MOLM-13 = assay: Secondary dose-response HTS, Cell Titer Glo; assay type: cell-based, human; conditions: secondary high-throughput screen, MOLM-13; for EC50: read-out: average effective concentration, MOLM-13
ML2 = assay: Secondary dose-response HTS, Cell Titer Glo; assay type: cell-based, human; conditions: secondary high-throughput screen, ML-2; for EC50: Homo sapiens, read-out: average effective concentration, ML-2
CHRF288-11 [1] = assay: Secondary dose-response HTS, Cell Titer Glo; assay type: cell-based, human; conditions: secondary high-throughput screen, CHRF288-11
CMK [2] = assay: Secondary dose-response HTS, Cell Titer Glo; assay type: cell-based, human; conditions: CMK; for EC50: read-out: average effective concentration, CMK
CMS = assay: cells; parameters: species or system AML cell lines (8); Secondary HTS, 10-point dose-response in triplicate, Cell Titer Glo viability, four-parameter fit EC50; conditions: 72 h, read-out: CMS
CHRF288-11 [3] = assay: cells; parameters: species or system AML cell lines (8); Secondary HTS, 10-point dose-response in triplicate, Cell Titer Glo viability, four-parameter fit EC50; conditions: 72 h, read-out: CHRF288-11
CMK [4] = assay: cells; parameters: species or system AML cell lines (8); Secondary HTS, 10-point dose-response in triplicate, Cell Titer Glo viability, four-parameter fit EC50; conditions: Homo sapiens, CMK, 72 h, read-out: CMK
[5] = secondary high-throughput screen

| SMILES | average effective concentration, MV4-11 (MV4-11) | average effective concentration, U937 (U937) | average effective concentration, M07e (M07e; M07e) | average effective concentration, MOLM-13 (MOLM-13) | average effective concentration, ML-2 (ML2) | average effective concentration, CHRF288-11 (CHRF288-11 [1]) | average effective concentration, CMK (CMK [2]; [5]) | also measured |
| --- | --- | --- | --- | --- | --- | --- | --- | --- |
| CCOC(=O)C1=C(C)NC2=C(C(=O)CC(C)(C)C2)C1c1ccc(-c2ccccc2)cc1 (centres unmarked) [ITD-1] | Inactive | Inactive | Inactive | Inactive | Inactive | Inactive | Inactive | – |
| Cc1ccc(F)c(NC(=O)Nc2ccc(-c3cccc4[nH]nc(N)c34)cc2)c1 [LINIFANIB] | – | – | – | – | – | – | – | EC50 (MV4-11; Homo sapiens): 3 nM; EC50 (U937): 6 µM; EC50 (M07e; Homo sapiens, M-07e, M07e): > 10 µM; EC50 (MOLM-13; Homo sapiens): 7 nM; EC50 (ML2): > 10 µM; EC50 (CMS): > 10 µM; EC50 (CMK [2]; Homo sapiens): 5.8 µM; EC50 (CHRF288-11 [3]): > 10 µM |
| Cn1cc(C(=O)Cc2ccccc2)cc1/C=C/C(=O)NO [MC 1293] | Inactive | Inactive | – | – | – | Inactive | – | EC50 (M07e; M07e): 0.45 µM; EC50 (CMK [2]; [5]): 8.7 µM |
| COc1c(C)c2c(c(O)c1C/C=C(\C)CCC(=O)OCCN1CCOCC1)C(=O)OC2 [MYCOPHENOLATE MOFETIL] | – | – | – | – | – | – | – | EC50 (MV4-11; Homo sapiens): 1900 nM; EC50 (U937): 3 µM; EC50 (M07e; Homo sapiens, M-07e, M07e): > 10 µM; EC50 (MOLM-13; Homo sapiens): 1500 nM; EC50 (ML2): 1.3 µM; EC50 (CHRF288-11 [1]; Homo sapiens, HTS, read-out: average effective concentration, CHRF288-11): 2900 nM; EC50 (CMS): > 10 µM; EC50 (CMK [2]; Homo sapiens): 7.5 µM |
| CCNC(=O)c1cc2c(-c3cc(OCCN4CCCC4)c(Cl)cc3Cl)nc(N)nc2s1 [NVP-BEP800] | – | – | – | – | – | – | – | average effective concentration, M07e (M07e; […]): Inactive |
| COc1ccc(Cn2ccc3ccc(C(=O)NO)cc32)cc1 [PCI 34051] | Inactive | Inactive | – | Inactive | Inactive | Inactive | Inactive | average effective concentration, M07e (M07e; […]): Inactive |
| COc1ccc(-c2cc3c(C)nc(N)nc3n([C@H]3CC[C@H](OCCO)CC3)c2=O)cn1 [PF-04691502] | – | – | Inactive | – | – | – | – | – |
| O=C(CCCCCCC(=O)Nc1cccnc1)NO [PYROXAMIDE] | – | – | – | – | – | – | – | EC50 (MV4-11; Homo sapiens): 1600 nM; EC50 (U937): 5.8 µM; EC50 (M07e; Homo sapiens, M-07e, M07e): 8.2 µM; EC50 (CMK [4]): > 10 µM; EC50 (MOLM-13; Homo sapiens): 6000 nM; EC50 (ML2): > 10 µM; EC50 (CMS): > 10 µM; EC50 (CHRF288-11 [3]): > 10 µM |
| CC(=O)Nc1ccc(NC(=S)NC(=O)c2ccc(C(C)(C)C)cc2)cc1 [TENOVIN-1] | Inactive | – | Inactive | Inactive | Inactive | Inactive | Inactive | – |
| O=c1[nH]c2sccc2c2ccccc12 [TIQ-A] | – | Inactive | – | – | Inactive | Inactive | Inactive | EC50 (MV4-11): 3500 nM; EC50 (M07e; M07e): 7 µM; EC50 (MOLM-13): 4200 nM |
| N#Cc1ccc(COC[C@H]2O[C@@H](n3c(NCc4ccc(Cl)c(Cl)c4)nc4c(N)ncnc43)[C@H](O)[C@@H]2O)cc1 [VER-155008] | Inactive | Inactive | Inactive | Inactive | Inactive | Inactive | Inactive | – |
| CCOc1cc(N2CCC(O)CC2)ccc1Nc1ncc2c(n1)N(C)c1ccccc1C(=O)N2C [XMD 8-92] | – | – | Inactive | – | Inactive | Inactive | – | – |
